Laboratory results taken from US20090118331A1, “Use of Lobeline Epimers in the Treatment of Central Nervous System Diseases, Pathologies, and Drug Abuse” (priority 2007, published 2009).

Experiments:
in vivo = assay: in vivo
Protocol: Here, serial doses of lobeline were administered to male and female rats intravenously, subcutaneously or orally, and the pharmacokinetic profiles of the parent lobeline and its epimer were monitored in plasma.

[1] = Lobeline conversion to epimer in the HEPES buffer system used at 25° C. in the [^3H]DTBZ binding study (HPLC); type: physicochemical; conditions: for Epimer %: [^3H]DTBZ binding buffer, 25° C.
Protocol: The initial dissolution of lobeline in water was followed by a 1:1 dilution of this stock solution in the appropriate HEPES buffer system, incubation at the prescribed temperature, and HPLC assay of each epimer and potential degradants over 2 hour incubation.
After 2 hours, the 25° C.

[2] = Lobeline conversion to epimer in deionized water (HPLC); type: physicochemical
Protocol: Extensive in vitro studies on the epimerization of lobeline were conducted in a variety of aqueous media. […] The concentration of the lobeline solution (500 mL) was ca. 0.5 mg/mL, and 1.5 mL aliquot parts were removed in triplicate at each time point and analyzed by HPLC. Corresponding pH measurements were performed with a Coming Model 240 pH meter.

[3] = Lobeline epimerization in pH 7.4 phosphate buffer control; conditions: after 2 hours, with impurity
Protocol: In order to determine the tendency of lobeline to undergo epimerization in the HEPES buffer employed in the 25° C. [^3H]DTBZ binding study and the 37° C. VMAT2 uptake studies previously described, analogous solution epimerization experiments were conducted using the corresponding conditions for each individual assay. […] As this dynamic phenomenon occurs, the ratio of lobeline to lobeline epimer in solution naturally changes over time. Further, depending upon the solution conditions, the rate and extent of epimerization may vary; thus, a ratio of lobeline to epimer, if achieved, may occur at various time points. After 2 hours, the 25° C. […] The epimerization of lobeline in the 37° C.

clinical = conditions: human, in vivo
Protocol: Three consecutive doses of lobeline (either 30, 45 and 45 mg in the first study group, or 60, 60 and 60 mg in the second group) were administered to human volunteers at 0800, 1200 and 1600 over two full inpatient days. The pharmacokinetics of lobeline and epimer were then assessed in each subject. […] A crude index of accumulation (non-steady state) was obtained by dividing the sixth dose trough concentration by that observed for the fifth dose.

[4] = female, rat, in vivo, sc, 3 mg/kg
[5] = male, rat, in vivo, iv, 2 mg/kg
[6] = male, rat, in vivo, po, 20 mg/kg
[7] = male, rat, in vivo, sc, 3 mg/kg

SMILES: CN1[C@H](CC(=O)c2ccccc2)CCC[C@H]1C[C@H](O)c1ccccc1 (single isomer, unassigned; epimer 2) [Epimer, 2-[6S-(2S-hydroxy-2-phenyl-ethyl)-1-methyl-piperidin-2S-yl]-1-phenyl-ethanone]
- Cmax (in vivo; [4]): 85 ng/mL
- MRT last (in vivo; [4]): 1.5 h
- Tmax (in vivo; [4]): 0.5 h
- half-life (in vivo; [4]): 1.11 h
- AUC(0-inf) (in vivo; [5]): 69.7 ng·h/mL
- AUC(0-t) (in vivo; [5]): 68.7 ng·h/mL
- Cmax (in vivo; [5]): 47.6 ng/mL
- MRT last (in vivo; [5]): 1.51 h
- Tmax (in vivo; [5]): 0.25 h
- Vd (in vivo; [5]): 46.3 L/kg
- clearance (in vivo; [5]): 0.48 mL/min/kg
- half-life (in vivo; [5]): 1.26 h
- AUC(0-inf) (in vivo; [6]): 54.8 ng·h/mL
- AUC(0-t) (in vivo; [6]): 54 ng·h/mL
- Cmax (in vivo; [6]): 49.8 ng/mL
- MRT last (in vivo; [6]): 1.73 h
- Tmax (in vivo; [6]): 0.5 h
- half-life (in vivo; [6]): 1.32 h
- AUC(0-inf) (in vivo; [7]): 109 ng·h/mL
- AUC(0-t) (in vivo; [7]): 108 ng·h/mL
- Cmax (in vivo; [7]): 54.4 ng/mL
- MRT last (in vivo; [7]): 1.45 h
- Tmax (in vivo; [7]): 0.5 h
- half-life (in vivo; [7]): 1.11 h
- time after lobeline administration within which significant epimer concentrations were achieved in plasma (in vivo; rats, irrespective of dose or route): 15 to 30 min
- final component concentration (as a function of the area under the curve) ([1]; HEPES [^3H]DTBZ binding buffer, after 2 hours at 25° C.): 17%
- Epimer % ([1]; T0, sample age 0:01): 1.54%
- Epimer % ([1]; T5, sample age 0:06): 2.16%
- Epimer % ([1]; T10, sample age 0:10): 3.34%
- Epimer % ([1]; T15, sample age 0:15): 4.55%
- Epimer % ([1]; T20, sample age 0:20): 5.27%
- Epimer % ([1]; T25, sample age 0:25): 5.91%
- Epimer % ([1]; T30, sample age 0:31): 7.18%
- Epimer % ([1]; T35, sample age 0:35): 7.30%
- Epimer % ([1]; T40, sample age 0:40): 8.66%
- Epimer % ([1]; T45, sample age 0:45): 9.31%
- Epimer % ([1]; T50, sample age 0:50): 9.94%
- Epimer % ([1]; T55, sample age 0:55): 10.2%
- Epimer % ([1]; T60, sample age 1:00): 10.9%
- Epimer % ([1]; T70, sample age 1:10): 11.9%
- Epimer % ([1]; T80, sample age 1:20): 13.1%
- Epimer % ([1]; T90, sample age 1:31): 14.1%
- Epimer % ([1]; T100, sample age 1:40): 15.2%
- Epimer % ([1]; T110, sample age 1:50): 16.1%
- Epimer % ([1]; T120, sample age 2:01): 17.0%
- % Epimer (Mean ± SD) ([2]; Solution 1 (Lobeline in “fresh” DI Water), time 0, pH 6.02): 0.83%
- % Epimer (Mean ± SD) ([2]; Solution 1 (“fresh” DI Water), 15 min, pH 6.03-6.24): 0.83 ± 0.054%
- % Epimer (Mean ± SD) ([2]; Solution 1 (“fresh” DI Water), 30 min, pH 6.02-6.24): 0.99 ± 0.164%
- % Epimer (Mean ± SD) ([2]; Solution 1 (“fresh” DI Water), 45 min, pH 6.13-6.37): 0.95 ± 0.144%
- % Epimer (Mean ± SD) ([2]; Solution 1 (“fresh” DI Water), 1 h, pH 6.26-6.52): 1.00 ± 0.196%
- % Epimer (Mean ± SD) ([2]; Solution 1 (“fresh” DI Water), 80 min, pH 6.19-6.50): 1.46 ± 0.112%
- % Epimer (Mean ± SD) ([2]; Solution 1 (“fresh” DI Water), 100 min, pH 6.16-6.50): 1.50 ± 0.139%
- % Epimer (Mean ± SD) ([2]; Solution 1 (“fresh” DI Water), 2 h, pH 5.63-5.88): 1.58 ± 0.599%
- % Epimer (Mean ± SD) ([2]; Solution 2 (Lobeline in “8-h” DI Water), time 0, pH 7.87): 1.03%
- % Epimer (Mean ± SD) ([2]; Solution 2 (“8-h” DI Water), 15 min, pH 7.78-8.21): 0.66 ± 0.273%
- % Epimer (Mean ± SD) ([2]; Solution 2 (“8-h” DI Water), 30 min, pH 7.58-7.85): 0.52 ± 0.214%
- % Epimer (Mean ± SD) ([2]; Solution 2 (“8-h” DI Water), 45 min, pH 7.66-7.68): 0.65 ± 0.056%
- % Epimer (Mean ± SD) ([2]; Solution 2 (“8-h” DI Water), 1 h, pH 6.84-7.11): 0.80 ± 0.087%
- % Epimer (Mean ± SD) ([2]; Solution 2 (“8-h” DI Water), 80 min, pH 6.53-6.79): 0.90 ± 0.150%
- % Epimer (Mean ± SD) ([2]; Solution 2 (“8-h” DI Water), 100 min, pH 6.24-6.51): 1.01 ± 0.207%
- % Epimer (Mean ± SD) ([2]; Solution 2 (“8-h” DI Water), 2 h, pH 6.21-6.49): 1.22 ± 0.257%
- ratio of epimer to lobeline obtained in vitro ([2]; in vitro with water at pH 7): approximately 0.5
- change in epimer concentration ([2]; lobeline dissolved in deionized water, over a 2-h period at 25° C.): < 1%
- component content of solution ([3]; pH 7.4 phosphate buffer control, same temperature as 25° C. binding buffer): 35%
- component content of solution ([3]; phosphate buffer control for the 37° C. VMAT2 uptake buffer): 36%
- half-life (clinical): 3.47 h
- time at which geometric mean plasma concentration peaked (clinical): 1.38 h
